A short description of this series: gradient 5% acetonitrile 3 min, to 50% in 2 min, to 85% in 15 min, held 3 min, 100 µL/min. Conditions: column: Zorbax Extend-C18 2.1 x 50 mm; eluents: water / acetonitrile, 0.1% formic acid. In outline: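 Pure standards were analyzed in mixtures of ~100 molecules using HPLC coupled to a quadrupole time-of-flight mass spectrometer, in both positive and negative ionization mode. Separation used a Zorbax Extend-C18 column (2.1 × 50 mm, 1.8 μm) at 100 μL/min, with water and acetonitrile each containing 0.1% formic acid. Dead and dwell volumes were 40 μL and 900 μL, and data were collected over 3 months. Retention time was read from computationally picked adduct peaks, each inspected manually.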
`CCCC(=O)Nc1ccc(-c2nc(-c3ccccc3)co2)cc1`: the RP-LC retention time was found to be 1010 s. The same measure for `Cn1nc(CN2CCCC2)c2c1CCN(S(=O)(=O)c1ccc(C(F)(F)F)cc1)C2`: 679 s; for `Cc1onc(-c2ccc(Br)cc2)c1C(=O)NCc1cccs1`: 988 s; for `Brc1ccc(OCc2nnc3sc(-c4ccccn4)nn23)cc1`: 960 s. In the case of `CC1CC(=O)Nc2cc(S(=O)(=O)N3CCN(c4ncccn4)CC3)ccc2S1` (configuration not stated), the RP-LC retention time is 803 s.

In the case of `Cc1cccc(CNC(=O)C2(C)Oc3cccnc3NC2=O)c1` (configuration not stated), the RP-LC retention time stood at 704 s. `COc1ccc2[nH]cc(CCN3CC(C(=O)N4CCc5ccccc54)CC3=O)c2c1` (configuration not stated) had an RP-LC retention time of 802 s. On to `COc1ccc(Cl)cc1C(=O)NC1CCN(c2cc(-c3cccs3)[nH]n2)C1` (configuration not stated), for which the RP-LC retention time worked out at 802 s.

In turn, `COc1cc(NC(=O)Cn2c(=O)nc(N3CCCC(C)C3)c3ccccc32)cc(OC)c1` (configuration not stated) showed an RP-LC retention time of 838 s. Compound `Cc1ccc(-c2nc(C3CCN(C(=O)C4CC(=O)N(c5ccc(C)c(C)c5)C4)CC3)no2)cc1` (configuration not stated) gave an RP-LC retention time of 1070 s. In turn, `O=C(c1c(F)cccc1F)N1CCN(S(=O)(=O)C2CC2)CC1` had an RP-LC retention time of 691 s. Compound `O=C(CCC1CCCC1)N1CCc2c([nH]c3ccccc23)C1c1ccc(Cl)cc1` (configuration not stated) had an RP-LC retention time of 1060 s.

`Cc1ccc(-c2nc3cnccn3c2NCCC(=O)NCc2ccco2)cc1` showed an RP-LC retention time of 684 s. `O=C(Nc1ccc(F)cc1F)N1CCC(N2CCN(Cc3ccc(F)cc3)C2=O)CC1`: the RP-LC retention time is 802 s. The same measure for `FC(F)(F)Oc1ccc(CN2CCN(c3cnn4cnnc4c3)CC2)cc1`: 611 s; for `COC(=O)C1C(=O)C2=C(CC1C)NC(C)=C(C(=O)OC(C)C)C2c1ccccc1OC` (configuration not stated): 908 s. `O=C(NCC1(CO)CC1)NC(c1ccccc1)c1ccccc1`: the RP-LC retention time turned out to be 706 s. As for `O=C(Cc1nnc(-c2ccc3ncccc3c2)o1)NCCC1=CCCCC1`, the figure is 759 s. On to `O=C(COc1ccccc1)N1CC(F)(F)C[C@H]1c1nnc(C2CC2)o1`, for which the RP-LC retention time worked out at 768 s. In turn, `Cc1ccc(-c2csc(NC(=O)CCCOc3ccc(Cl)cc3)n2)cc1` gave an RP-LC retention time of 979 s.

As to `COc1cccc(NC(=O)C2CCN(S(=O)(=O)c3c(C)nn(-c4ccccc4)c3C)CC2)c1`, the RP-LC retention time stood at 940 s. The same measure for `O=C(Nc1cc(-c2cccs2)no1)c1cccc(F)c1`: 959 s. For the compound `Cc1nc(-c2cc(S(=O)(=O)N(C)C3CCCCC3)c(C)s2)sc1C`, the RP-LC retention time was determined as 1320 s. Compound `CC(C)C(=O)Nc1ccc(-n2cnc(C(=O)NC(C)c3ccc(F)cc3)c2)nc1` (configuration not stated) came in with an RP-LC retention time of 777 s.

`C[C@H]1CN(C(=O)Nc2ccccc2Cl)C[C@@H]1c1nc(-c2ccncc2)no1` yielded an RP-LC retention time of 854 s. The same measure for `CCC(C)C(NC(=O)c1cc(F)cc(F)c1)C(=O)Nc1nc2ccccc2[nH]1` (configuration not stated): 787 s. As to `CN1C(=O)COc2ccc(-c3csc(NC(=O)c4ccc(F)cc4)n3)cc21`, the RP-LC retention time was found to be 952 s. As to `Cc1cc(NC(=O)C(C)C2CCN(C(=O)Nc3ccc(Cl)cc3)CC2)ccc1F` (configuration not stated), the RP-LC retention time stood at 952 s. On to `COC(=O)c1sccc1NC(=O)NCC(c1ccc(OC)c(OC)c1)c1c[nH]c2ccccc12` (configuration not stated), for which the RP-LC retention time was 978 s. Turning to `CC(C)OC(=O)N1CCC(Oc2ncnc3c2cnn3-c2ccc(S(C)(=O)=O)cc2F)CC1`, the RP-LC retention time is 1060 s. For the compound `COc1ccc(Nc2c(-c3nc(C)no3)cnc3nc(C)ccc23)cc1Cl`, the RP-LC retention time amounted to 736 s.

Compound `CC(=O)Nc1cc2c(cc1Sc1ccc(Cl)cc1)n(C)c(=O)n2C` returned an RP-LC retention time of 806 s.

(Values after the METLIN SMRT retention time set (Domingo-Almenara et al. 2019).)
